Assay results taken from ChEMBL document CHEMBL1909046, “DrugMatrix in vitro pharmacology data”.

Experiments:
[1] = target: T1, Type-2 angiotensin II receptor (Homo sapiens, UniProt P50052); assay type: cell-based; conditions: cho-k1; note: in other assays of this panel Not Active means under 50% inhibition at 10 µM
T1 sequence (P50052 whole entry): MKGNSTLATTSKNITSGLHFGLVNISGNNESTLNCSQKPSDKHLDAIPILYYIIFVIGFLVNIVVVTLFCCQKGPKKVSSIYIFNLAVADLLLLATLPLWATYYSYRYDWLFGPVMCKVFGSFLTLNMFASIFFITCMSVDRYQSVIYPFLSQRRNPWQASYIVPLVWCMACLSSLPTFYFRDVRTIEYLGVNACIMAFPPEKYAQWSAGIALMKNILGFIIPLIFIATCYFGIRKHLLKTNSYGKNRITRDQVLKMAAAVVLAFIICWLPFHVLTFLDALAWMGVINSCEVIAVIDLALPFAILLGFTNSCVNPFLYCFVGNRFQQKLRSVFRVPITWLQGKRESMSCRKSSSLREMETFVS

[2] = DRUGMATRIX: GABAA, Muscimol, Central radioligand binding (ligand: [3H] Muscimol); assay type: cell membranes, Rattus norvegicus, Wistar, Brain, Membrane; conditions: Not Active = under 50% inhibition at 10 µM
[3] = target: T2, 3-hydroxy-3-methylglutaryl-coenzyme A reductase (Homo sapiens, UniProt P04035); design: species or system Escherichia coli;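 note: enzyme inhibition assay of HMG-CoA reductase using radiolabeled [14C]HMG-CoA as substrate; in other assays of this panel Not Active means under 50% inhibition at 10 µM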
T2 sequence (P04035 whole entry): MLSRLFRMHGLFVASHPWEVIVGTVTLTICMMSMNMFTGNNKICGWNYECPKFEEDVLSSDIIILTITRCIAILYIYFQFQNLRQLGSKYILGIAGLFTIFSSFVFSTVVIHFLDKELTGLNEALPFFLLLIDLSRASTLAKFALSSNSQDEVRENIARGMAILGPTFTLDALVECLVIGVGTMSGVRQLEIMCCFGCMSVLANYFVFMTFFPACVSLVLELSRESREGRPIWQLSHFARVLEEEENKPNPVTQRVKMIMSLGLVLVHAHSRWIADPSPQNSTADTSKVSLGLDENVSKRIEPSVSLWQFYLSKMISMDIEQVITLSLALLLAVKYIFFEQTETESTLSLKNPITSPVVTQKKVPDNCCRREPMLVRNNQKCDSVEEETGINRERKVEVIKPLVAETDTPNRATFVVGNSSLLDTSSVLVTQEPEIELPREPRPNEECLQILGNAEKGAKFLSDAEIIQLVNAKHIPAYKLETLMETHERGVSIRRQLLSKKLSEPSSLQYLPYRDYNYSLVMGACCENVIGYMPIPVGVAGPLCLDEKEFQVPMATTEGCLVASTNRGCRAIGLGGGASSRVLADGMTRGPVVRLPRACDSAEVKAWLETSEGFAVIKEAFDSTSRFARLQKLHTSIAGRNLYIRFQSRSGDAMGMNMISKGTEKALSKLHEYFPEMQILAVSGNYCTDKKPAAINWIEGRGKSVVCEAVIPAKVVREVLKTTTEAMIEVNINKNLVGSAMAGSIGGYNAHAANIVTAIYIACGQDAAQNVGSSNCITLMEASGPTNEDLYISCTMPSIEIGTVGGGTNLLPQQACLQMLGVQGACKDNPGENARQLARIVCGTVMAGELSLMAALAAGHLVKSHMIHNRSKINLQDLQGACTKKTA

[4] = target: T3, Muscarinic acetylcholine receptor M4 (Homo sapiens, UniProt P08173); assay type: cell membranes, CHO-K1, Membrane; note: in other assays of this panel Not Active means under 50% inhibition at 10 µM
T3 sequence (P08173 whole entry): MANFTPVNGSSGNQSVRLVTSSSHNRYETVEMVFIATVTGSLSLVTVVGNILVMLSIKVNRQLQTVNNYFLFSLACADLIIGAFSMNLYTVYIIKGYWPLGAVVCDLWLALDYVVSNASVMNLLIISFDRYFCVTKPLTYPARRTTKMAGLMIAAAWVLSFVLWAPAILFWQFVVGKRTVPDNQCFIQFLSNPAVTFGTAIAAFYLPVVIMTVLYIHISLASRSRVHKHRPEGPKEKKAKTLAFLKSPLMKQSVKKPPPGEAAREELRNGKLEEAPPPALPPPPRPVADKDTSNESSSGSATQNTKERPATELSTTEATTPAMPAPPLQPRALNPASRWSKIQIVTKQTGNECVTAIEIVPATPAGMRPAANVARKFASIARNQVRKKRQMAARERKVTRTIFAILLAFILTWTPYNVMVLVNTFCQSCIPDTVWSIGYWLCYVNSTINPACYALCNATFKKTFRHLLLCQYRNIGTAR

[5] = target: T4, Muscarinic acetylcholine receptor M5 (Homo sapiens, UniProt P08912); assay type: cell membranes, Membrane; conditions: cho-k1; note: in other assays of this panel Not Active means under 50% inhibition at 10 µM
T4 sequence (P08912 whole entry): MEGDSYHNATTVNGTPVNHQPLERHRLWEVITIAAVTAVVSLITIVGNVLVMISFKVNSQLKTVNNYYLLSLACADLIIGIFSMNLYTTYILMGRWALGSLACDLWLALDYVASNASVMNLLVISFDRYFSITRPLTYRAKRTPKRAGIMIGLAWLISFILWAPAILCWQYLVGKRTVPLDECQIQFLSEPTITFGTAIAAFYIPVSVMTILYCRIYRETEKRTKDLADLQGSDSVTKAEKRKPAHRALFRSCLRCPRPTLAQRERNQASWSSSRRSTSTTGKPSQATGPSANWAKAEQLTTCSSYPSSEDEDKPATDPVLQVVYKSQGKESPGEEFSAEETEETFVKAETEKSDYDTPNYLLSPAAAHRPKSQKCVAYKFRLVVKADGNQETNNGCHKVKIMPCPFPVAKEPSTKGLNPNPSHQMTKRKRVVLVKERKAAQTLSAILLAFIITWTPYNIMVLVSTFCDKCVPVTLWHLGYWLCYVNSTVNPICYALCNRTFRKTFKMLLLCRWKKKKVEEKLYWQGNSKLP

[6] = target: Tyrosine-protein kinase Fyn (Homo sapiens, UniProt P06241); test: biochemical; assay type: cell-based, Insect cells
Adenosine receptor A1 = target: T5, Adenosine receptor A1 (Homo sapiens, UniProt P30542); assay type: cell membranes, CHO, Membrane; conditions: for Ki: read-out: Ki
T5 sequence (P30542 whole entry): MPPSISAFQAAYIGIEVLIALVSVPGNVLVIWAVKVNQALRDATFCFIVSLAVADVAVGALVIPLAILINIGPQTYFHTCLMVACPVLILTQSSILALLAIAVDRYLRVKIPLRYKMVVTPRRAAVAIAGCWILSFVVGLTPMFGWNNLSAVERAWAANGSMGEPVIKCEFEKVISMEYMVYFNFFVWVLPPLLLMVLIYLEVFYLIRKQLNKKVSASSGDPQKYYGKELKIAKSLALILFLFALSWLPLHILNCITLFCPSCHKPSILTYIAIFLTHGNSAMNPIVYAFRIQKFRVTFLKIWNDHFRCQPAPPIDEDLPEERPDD

Tyrosine-protein kinase Fyn, sequence (P06241 whole entry): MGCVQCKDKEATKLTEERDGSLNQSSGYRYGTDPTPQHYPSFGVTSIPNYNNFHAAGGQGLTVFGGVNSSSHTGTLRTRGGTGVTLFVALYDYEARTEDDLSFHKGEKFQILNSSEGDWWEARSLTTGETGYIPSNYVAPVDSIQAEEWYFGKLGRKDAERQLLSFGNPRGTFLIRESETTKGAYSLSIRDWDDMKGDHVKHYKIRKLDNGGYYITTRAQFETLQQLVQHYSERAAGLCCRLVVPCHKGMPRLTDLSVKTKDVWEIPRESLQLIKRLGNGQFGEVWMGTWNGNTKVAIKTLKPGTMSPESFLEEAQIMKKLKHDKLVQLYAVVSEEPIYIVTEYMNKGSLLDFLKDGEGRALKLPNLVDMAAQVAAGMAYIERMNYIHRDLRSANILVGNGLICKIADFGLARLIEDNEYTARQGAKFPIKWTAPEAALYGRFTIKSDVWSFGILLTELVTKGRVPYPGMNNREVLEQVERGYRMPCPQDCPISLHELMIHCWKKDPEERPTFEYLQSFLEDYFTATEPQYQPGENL

Structure (SMILES) | IC50 [1] | IC50 [2] | Ki [2] | IC50 [3] | IC50 ([4]; cho-k1) | IC50 [5] | IC50 ([6]; insect cells) | IC50 (Adenosine receptor A1; read-out: IC50) [nM] | Ki (Adenosine receptor A1) [nM] | IC50 (Adenosine receptor A1; cho) | IC50 ([4]; read-out: IC50) [µM] | Ki ([4]; read-out: Ki) [nM] | IC50 ([6]; read-out: IC50) [µM]
COc1cc(N)nc2[nH]c(-c3ccc(F)cc3)c(-c3ccncc3)c12 | Not Active | Not Active | Not Active | Not Active | Not Active | Not Active | Not Active | 887 | 518 |  |  |  | 
CNS(=O)(=O)Cc1ccc2[nH]cc(CCN(C)C)c2c1 | Not Active | Not Active | Not Active | Not Active | Not Active | Not Active | Not Active |  |  | Not Active |  |  | 
CCCc1nn(C)c2c(=O)[nH]c(-c3cc(S(=O)(=O)N4CCN(C)CC4)ccc3OCC)nc12 | Not Active | Not Active | Not Active | Not Active | Not Active | Not Active | Not Active | 1490 | 871 |  |  |  | 
COc1ccc(/C=C/C(=O)Nc2ccccc2C(=O)O)cc1OC | Not Active | Not Active | Not Active | Not Active | Not Active | Not Active | Not Active |  |  | Not Active |  |  | 
CCOC(N)=O | Not Active | Not Active | Not Active | Not Active | Not Active | Not Active | Not Active |  |  | Not Active |  |  | 
CC(=O)Nc1nnc(S(N)(=O)=O)s1 [ACETAZOLAMIDE] | Not Active |  |  | Not Active | Not Active | Not Active | Not Active |  |  | Not Active |  |  | 
O=c1[nH]c2ccccc2n1CCCN1CCC(n2c(=O)[nH]c3cc(Cl)ccc32)CC1 [DOMPERIDONE] | Not Active |  |  | Not Active | Not Active | Not Active | Not Active |  |  | Not Active |  |  | 
CC1=C(CC(=O)O)c2cc(F)ccc2/C1=C\c1ccc(S(C)(=O)=O)cc1 [EXISULIND] | Not Active | Not Active | Not Active | Not Active | Not Active | Not Active | Not Active |  |  | Not Active |  |  | 
CC(C)OC(=O)C(C)(C)Oc1ccc(C(=O)c2ccc(Cl)cc2)cc1 [FENOFIBRATE] | Not Active |  |  | Not Active | Not Active | Not Active | Not Active |  |  | Not Active |  |  | 
OCCN1CCN(CCCN2c3ccccc3Sc3ccc(C(F)(F)F)cc32)CC1 [FLUPHENAZINE] | Not Active |  |  | Not Active |  | Not Active |  |  |  | Not Active | 3.47 | 484 | 7.99
CN1C2CCCC1CC(NC(=O)c1nn(C)c3ccccc13)C2 (stereo not drawn) [GRANISETRON] | Not Active |  |  | Not Active | Not Active | Not Active | Not Active |  |  | Not Active |  |  | 
Nc1nc2c(c(=O)[nH]1)N(C=O)C(CNc1ccc(C(=O)N[C@@H](CCC(=O)O)C(=O)O)cc1)CN2 (stereo partly drawn) [LEUCOVORIN] | Not Active | Not Active | Not Active | Not Active | Not Active | Not Active | Not Active |  |  | Not Active |  |  | 
C[C@@H](O)[C@H]1C(=O)N2C(C(=O)O)=C(S[C@@H]3CN[C@H](C(=O)N(C)C)C3)[C@H](C)[C@H]12 [MEROPENEM] | Not Active | Not Active | Not Active | Not Active | Not Active | Not Active | Not Active |  |  | Not Active |  |  | 
CC[C@@H](CO)NC(=O)[C@@H]1C=C2c3cccc4c3c(cn4C)C[C@H]2N(C)C1 [METHYSERGIDE] | Not Active |  |  | Not Active | Not Active | Not Active | Not Active |  |  | Not Active |  |  | 
CCN(CC)CC#CCOC(=O)C(O)(c1ccccc1)C1CCCCC1 (stereo not drawn) [OXYBUTYNIN] | Not Active |  |  | Not Active |  |  | Not Active |  |  | Not Active |  |  | 
O=P(O)(O)C(O)(Cc1cccnc1)P(=O)(O)O [RISEDRONIC ACID] | Not Active | Not Active | Not Active | Not Active | Not Active | Not Active | Not Active |  |  | Not Active |  |  | 
CN(CCOc1ccc(CC2SC(=O)NC2=O)cc1)c1ccccn1 (stereo not drawn) [ROSIGLITAZONE] | Not Active | Not Active | Not Active | Not Active | Not Active | Not Active | Not Active |  |  | Not Active |  |  | 
C=C(C)[C@H]1Cc2c(ccc3c2O[C@@H]2COc4cc(OC)c(OC)cc4[C@@H]2C3=O)O1 [ROTENONE] | Not Active | Not Active | Not Active | Not Active | Not Active | Not Active | Not Active |  |  | Not Active |  |  | 
C#CCN(C)[C@H](C)Cc1ccccc1 [SELEGILINE] | Not Active | Not Active | Not Active | Not Active | Not Active | Not Active | Not Active |  |  | Not Active |  |  | 
CO[C@H]1C[C@@H]2CC[C@@H](C)[C@@](O)(O2)C(=O)C(=O)N2CCCC[C@H]2C(=O)O[C@H]([C@H](C)C[C@@H]2CC[C@@H](O)[C@H](OC)C2)CC(=O)[C@H](C)/C=C(\C)[C@@H](O)[C@@H](OC)C(=O)[C@H](C)C[C@H](C)/C=C/C=C/C=C/1C [SIROLIMUS] | Not Active | Not Active | Not Active | Not Active | Not Active | Not Active | Not Active |  |  | Not Active |  |  | 
O=c1n(CCCN2CCN(c3cccc(Cl)c3)CC2)nc2ccccn12 [TRAZODONE] | Not Active |  |  | Not Active | Not Active | Not Active | Not Active |  |  | Not Active |  |  | 
